# From patent US20110201564A1, “SUBSTITUTED 7-SULFANYLMETHYL, 7-SULFINYLMETHYL AND 7-SULFONYLMETHYL INDOLES AND USE THEREOF” (BAYER SCHERING PHARMA AKTIENGESELLSCHAFT, priority 2008, published 2011)
# pIC50: −log10 of the molar value. Like-named read-outs stand apart in the source and are kept apart here.
# What was measured:
# [1] = target: T1, human mineralocorticoid receptor (MR) (Homo sapiens, UniProt P08235); assay: Cellular in vitro assay, GAL4-MR chimera luciferase reporter in CHO K1 cells (inhibitory MR activity); assay type: cell-based; settings: antagonism vs aldosterone; CHO K1 GAL4-MR LBD luciferase reporter
# T1 construct: expressed in transfected cells; host or cells: CHO K1
# T1 sequence (P08235 734-984 limits assumed): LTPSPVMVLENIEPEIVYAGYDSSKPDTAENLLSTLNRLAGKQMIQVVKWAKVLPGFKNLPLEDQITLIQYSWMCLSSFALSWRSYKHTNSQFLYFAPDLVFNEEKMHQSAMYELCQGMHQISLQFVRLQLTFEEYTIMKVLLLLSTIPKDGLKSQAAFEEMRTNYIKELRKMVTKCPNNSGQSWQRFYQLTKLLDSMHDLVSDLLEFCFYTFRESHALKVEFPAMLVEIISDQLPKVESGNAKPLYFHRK
# Procedure, shortened: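 CHO K1 cells stably expressing GAL4 DNA-binding domain fused to human MR, PR or AR ligand-binding domains plus GAL4-driven firefly luciferase; compounds added 10–30 min before agonist (aldosterone, progesterone or dihydrotestosterone), luciferase read after 5–6 h; IC50 from sigmoidal concentration–response curves.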
# [2] = target: T2, CYP3A4 (Homo sapiens, UniProt P08684); assay: CYP inhibition assay with human liver microsomes; assay type: in vitro ADME
# T2 construct: using human liver microsomes (pool from various individuals); from tissue; host or cells: human liver microsomes (pool from various individuals)
# T2 sequence (P08684 whole entry): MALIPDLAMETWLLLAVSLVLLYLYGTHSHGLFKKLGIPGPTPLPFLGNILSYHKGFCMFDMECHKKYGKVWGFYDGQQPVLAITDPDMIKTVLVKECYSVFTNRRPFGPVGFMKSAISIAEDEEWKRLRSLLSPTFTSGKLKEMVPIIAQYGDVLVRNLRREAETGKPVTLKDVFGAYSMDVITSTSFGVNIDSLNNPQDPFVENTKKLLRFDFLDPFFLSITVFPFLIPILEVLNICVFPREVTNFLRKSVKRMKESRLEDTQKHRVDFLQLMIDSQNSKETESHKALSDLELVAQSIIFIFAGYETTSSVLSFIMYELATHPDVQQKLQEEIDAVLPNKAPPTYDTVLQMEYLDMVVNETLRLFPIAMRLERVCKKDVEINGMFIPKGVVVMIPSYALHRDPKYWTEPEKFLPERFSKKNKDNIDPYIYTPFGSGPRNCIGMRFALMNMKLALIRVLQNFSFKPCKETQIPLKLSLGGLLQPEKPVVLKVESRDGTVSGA
# Procedure, shortened: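 Pooled human liver microsomes (23-233 μg/mL) incubated 15-20 min at 37° C, pH 7.4 phosphate with NADP+/G6P regenerating system, isoform-specific substrate and six test compound concentrations (top 50 or 20 μM). Metabolites quantified by LC-MS/MS; IC50 versus uninhibited formation. CYP3A4 mechanism-based check: 30 min preincubation before midazolam or testosterone.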
# [3] = 30 min preincubation with test compound before substrate, read-out: CYP 3A4 Preincubation, 30 min.
# [4] = without preincubation, read-out: CYP 3A4 Coincubation
SMILES,pIC50 [1],"pIC50 [2, 3]","pIC50 [2, 4]"
"CS(=O)(=O)Cc1cccc2c(C(CCC#N)c3ccc4sccc4c3)c[nH]c12 (stereo not drawn) [Example 73, 4-(1-Benzothiophen-5-yl)-4-{7-[(methylsulfonyl)methyl]-1H-indol-3-yl}butanonitrile]",7.05,4.78,< 4.70
"CS(=O)(=O)Cc1cccc2c(C(c3ccc(F)cc3)c3ccc(C(F)(F)F)cc3)c[nH]c12 (stereo not drawn) [Example 113, 3-{(4-Fluorophenyl) [4-(trifluoromethyl)phenyl]methyl}-7-[(methylsulfonyl)methyl]-1H-indole]",6.89,< 4.70,< 4.70
"CS(=O)(=O)Cc1cccc2c(C(CCC#N)c3ccc(Cl)cc3F)c[nH]c12 (single isomer, unassigned) [Example 59-1, 4-(4-Chloro-2-fluorophenyl)-4-{7-[(methylsulfonyl)methyl]-1H-indol-3-yl}butanonitrile]",7.10,4.88,< 4.70
"CS(=O)(=O)Cc1cccc2c(C(CCC#N)c3ccc4c(c3)OC(F)(F)O4)c[nH]c12 (stereo not drawn) [Example 169, 4-(2,2-Difluoro-1,3-benzodioxol-5-yl)-4-{7-[(methylsulfonyl)methyl]-1H-indol-3-yl}butanonitrile]",6.96,4.77,< 4.70

# Stronger by pIC50 [1], values ahead:
pIC50 [1],"pIC50 [2, 3]","pIC50 [2, 4]",SMILES
7.48,4.72,< 4.70,"CS(=O)(=O)Cc1cccc2c(C(c3ccc(Cl)cc3)C3CC3(F)F)c[nH]c12 (single isomer, unassigned) [Example 261-1, 3-[(4-Chlorophenyl)(2,2-difluorocyclopropyl)methyl]-7-[(methylsulfonyl)methyl]-1H-indole]"
7.52,5.06,< 4.70,"CCC(CCO)(c1ccc(Cl)cc1)c1c[nH]c2c(CS(C)(=O)=O)cccc12 (stereo not drawn) [Example 147, 3-(4-Chlorophenyl)-3-{7-[(methylsulfonyl)methyl]-1H-indol-3-yl}pentan-1-ol]"
7.70,4.89,< 4.70,"CS(=O)(=O)Cc1cccc2c(C3(C4CC4)CCc4cc(F)ccc43)c[nH]c12 (stereo not drawn) [Example 107, 3-(1-Cyclopropyl-5-fluoro-2,3-dihydro-1H-inden-1-yl)-7-[(methylsulfonyl)methyl]-1H-indole]"
7.70,5.02,< 4.70,"CCC(CCC#N)(c1ccc(Cl)cc1)c1c[nH]c2c(CS(C)(=O)=O)cccc12 (stereo not drawn) [Example 172, 4-(4-Chlorophenyl)-4-{7-[(methylsulfonyl)methyl]-1H-indol-3-yl}hexanonitrile]"
8.22,4.59,< 4.40,"CS(=O)(=O)Cc1cc(F)cc2c(C(c3ccc(C(F)(F)F)cc3F)C3CC3C#N)c[nH]c12 (single isomer, unassigned) [Example 271-1-1, 2-({5-Fluoro-7-[(methylsulfonyl)methyl]-1H-indol-3-yl}[2-fluoro-4-(trifluoro-methyl)phenyl]methyl)cyclopropanecarbonitrile]"
8.22,4.86,< 4.70,"CS(=O)(=O)Cc1cc(F)cc2c(C(c3ccc(Cl)cc3F)C3CC3C#N)c[nH]c12 (single isomer, unassigned) [Example 273-1-2, 2-[(4-Chloro-2-fluorophenyl){5-fluoro-7-[(methylsulfonyl)methyl]-1H-indol-3-yl}methyl]cyclopropanecarbonitrile]"
